Assay results from ChEMBL document CHEMBL5291721, “A preclinical secondary pharmacology resource illuminates target-adverse drug reaction associations of marketed drugs” (Nat Commun, 2023).

Key:
[1] = biological target: T1, Peroxisome proliferator-activated receptor alpha (Homo sapiens, UniProt Q07869); assay type: functional
T1 sequence (Q07869 whole entry): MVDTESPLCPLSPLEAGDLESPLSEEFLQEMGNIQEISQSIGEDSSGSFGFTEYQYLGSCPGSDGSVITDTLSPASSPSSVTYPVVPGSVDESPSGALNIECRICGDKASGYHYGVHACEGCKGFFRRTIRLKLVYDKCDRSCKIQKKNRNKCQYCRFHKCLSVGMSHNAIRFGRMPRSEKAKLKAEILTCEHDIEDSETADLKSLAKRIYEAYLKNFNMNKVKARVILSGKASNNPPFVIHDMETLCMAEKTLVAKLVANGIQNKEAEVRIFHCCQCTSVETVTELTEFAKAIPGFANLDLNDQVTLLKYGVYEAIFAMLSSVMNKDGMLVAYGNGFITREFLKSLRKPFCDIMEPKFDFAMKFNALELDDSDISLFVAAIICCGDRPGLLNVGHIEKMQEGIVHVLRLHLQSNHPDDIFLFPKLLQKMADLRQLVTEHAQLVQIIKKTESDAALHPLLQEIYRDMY

[2] = biological target: T1, Peroxisome proliferator-activated receptor alpha; assay type: functional; remark: listed apart in the source
[3] = biological target: Beta-1 adrenergic receptor (Homo sapiens, UniProt P08588); assay type: functional, cell-based
[4] = biological target: T2, Nuclear receptor subfamily 1 group I member 3 (Homo sapiens, UniProt Q14994); assay type: functional
T2 sequence (Q14994 whole entry): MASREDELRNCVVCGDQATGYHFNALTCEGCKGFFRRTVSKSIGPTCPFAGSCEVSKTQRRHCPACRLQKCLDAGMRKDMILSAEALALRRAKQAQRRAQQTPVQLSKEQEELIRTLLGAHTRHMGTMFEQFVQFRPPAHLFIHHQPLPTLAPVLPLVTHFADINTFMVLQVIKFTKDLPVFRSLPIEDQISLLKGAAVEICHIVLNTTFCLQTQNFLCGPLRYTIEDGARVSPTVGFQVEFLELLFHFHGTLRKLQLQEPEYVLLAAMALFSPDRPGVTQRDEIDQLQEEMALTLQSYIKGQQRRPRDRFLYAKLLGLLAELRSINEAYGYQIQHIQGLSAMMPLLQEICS

[5] = biological target: T3, Prostaglandin G/H synthase 1 (Rattus norvegicus, UniProt Q63921); assay type: functional
T3 sequence (Q63921 whole entry): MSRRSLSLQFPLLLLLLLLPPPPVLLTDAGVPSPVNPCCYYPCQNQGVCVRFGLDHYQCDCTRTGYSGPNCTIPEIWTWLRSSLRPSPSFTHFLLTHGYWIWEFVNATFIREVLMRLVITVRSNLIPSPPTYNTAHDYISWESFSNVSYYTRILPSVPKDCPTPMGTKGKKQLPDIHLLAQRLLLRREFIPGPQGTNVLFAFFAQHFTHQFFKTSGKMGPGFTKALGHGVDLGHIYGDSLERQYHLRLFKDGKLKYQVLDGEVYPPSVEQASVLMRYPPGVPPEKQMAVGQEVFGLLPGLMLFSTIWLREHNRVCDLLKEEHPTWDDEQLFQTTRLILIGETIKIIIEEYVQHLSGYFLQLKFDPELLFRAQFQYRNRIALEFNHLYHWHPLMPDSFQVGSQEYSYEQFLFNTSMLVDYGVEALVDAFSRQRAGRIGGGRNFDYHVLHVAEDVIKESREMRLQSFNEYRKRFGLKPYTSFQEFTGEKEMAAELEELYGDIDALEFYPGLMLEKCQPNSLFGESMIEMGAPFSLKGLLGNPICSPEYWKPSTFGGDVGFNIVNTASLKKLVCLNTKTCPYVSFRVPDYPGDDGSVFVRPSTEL

[6] = biological target: T4, Muscarinic acetylcholine receptor M5 (Homo sapiens, UniProt P08912)
T4 sequence (P08912 whole entry): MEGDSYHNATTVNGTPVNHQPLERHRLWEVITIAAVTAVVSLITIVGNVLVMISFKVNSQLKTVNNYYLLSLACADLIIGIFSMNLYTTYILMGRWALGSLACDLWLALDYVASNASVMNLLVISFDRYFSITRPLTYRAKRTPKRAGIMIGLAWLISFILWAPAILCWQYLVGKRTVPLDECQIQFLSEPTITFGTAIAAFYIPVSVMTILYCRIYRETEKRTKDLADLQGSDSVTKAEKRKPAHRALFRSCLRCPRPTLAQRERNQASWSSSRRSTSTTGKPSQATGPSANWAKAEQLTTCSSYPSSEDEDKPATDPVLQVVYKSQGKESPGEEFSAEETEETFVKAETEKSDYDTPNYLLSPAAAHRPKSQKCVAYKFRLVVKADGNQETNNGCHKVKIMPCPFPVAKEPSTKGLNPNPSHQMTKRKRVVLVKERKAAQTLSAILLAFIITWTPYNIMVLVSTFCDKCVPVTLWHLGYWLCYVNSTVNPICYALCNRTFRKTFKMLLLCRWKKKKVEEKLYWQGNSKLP

[7] = biological target: T5, 5-hydroxytryptamine receptor 1A (Homo sapiens, UniProt P08908)
T5 sequence (P08908 whole entry): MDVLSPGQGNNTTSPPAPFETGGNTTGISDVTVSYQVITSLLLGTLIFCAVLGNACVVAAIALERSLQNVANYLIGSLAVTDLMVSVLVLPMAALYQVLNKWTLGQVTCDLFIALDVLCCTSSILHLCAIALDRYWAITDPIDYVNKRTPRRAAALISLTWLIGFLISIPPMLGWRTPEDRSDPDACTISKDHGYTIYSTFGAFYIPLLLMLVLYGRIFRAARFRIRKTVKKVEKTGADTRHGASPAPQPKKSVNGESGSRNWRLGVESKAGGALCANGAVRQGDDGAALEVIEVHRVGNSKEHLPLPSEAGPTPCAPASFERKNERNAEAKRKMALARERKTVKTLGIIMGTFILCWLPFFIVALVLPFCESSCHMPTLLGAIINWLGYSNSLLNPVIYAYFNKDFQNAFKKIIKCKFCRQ

[8] = biological target: 5-hydroxytryptamine receptor 2B (Homo sapiens, UniProt P41595)
[9] = biological target: 5-hydroxytryptamine receptor 5A (Homo sapiens, UniProt P47898)
Further: assay procedure not described here.

Sequence of Beta-1 adrenergic receptor (P08588 whole entry): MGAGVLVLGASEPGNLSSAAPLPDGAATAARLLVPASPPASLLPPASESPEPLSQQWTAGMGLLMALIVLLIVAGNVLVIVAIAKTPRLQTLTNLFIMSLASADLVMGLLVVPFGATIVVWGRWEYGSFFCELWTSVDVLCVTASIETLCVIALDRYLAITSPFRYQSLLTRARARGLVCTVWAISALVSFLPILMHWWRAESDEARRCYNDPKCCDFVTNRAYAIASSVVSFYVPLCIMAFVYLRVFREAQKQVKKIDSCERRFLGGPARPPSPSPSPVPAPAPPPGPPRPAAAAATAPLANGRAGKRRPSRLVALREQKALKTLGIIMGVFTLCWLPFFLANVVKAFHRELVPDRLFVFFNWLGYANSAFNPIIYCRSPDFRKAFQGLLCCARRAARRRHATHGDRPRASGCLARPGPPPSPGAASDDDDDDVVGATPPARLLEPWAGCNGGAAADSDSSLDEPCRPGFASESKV
Sequence of 5-hydroxytryptamine receptor 2B (P41595 whole entry): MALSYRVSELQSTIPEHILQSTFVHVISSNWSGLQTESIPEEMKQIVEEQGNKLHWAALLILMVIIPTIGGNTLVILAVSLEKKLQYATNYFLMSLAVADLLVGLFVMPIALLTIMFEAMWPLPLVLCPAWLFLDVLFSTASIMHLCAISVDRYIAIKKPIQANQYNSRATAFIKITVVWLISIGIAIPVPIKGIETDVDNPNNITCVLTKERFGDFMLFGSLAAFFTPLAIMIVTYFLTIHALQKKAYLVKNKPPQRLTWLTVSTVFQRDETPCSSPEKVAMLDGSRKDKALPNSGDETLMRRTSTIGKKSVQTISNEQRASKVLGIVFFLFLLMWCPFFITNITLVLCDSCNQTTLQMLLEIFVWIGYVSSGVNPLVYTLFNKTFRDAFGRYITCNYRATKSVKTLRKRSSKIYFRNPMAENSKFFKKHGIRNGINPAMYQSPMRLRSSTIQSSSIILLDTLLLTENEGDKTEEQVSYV
Sequence of 5-hydroxytryptamine receptor 5A (P47898 whole entry): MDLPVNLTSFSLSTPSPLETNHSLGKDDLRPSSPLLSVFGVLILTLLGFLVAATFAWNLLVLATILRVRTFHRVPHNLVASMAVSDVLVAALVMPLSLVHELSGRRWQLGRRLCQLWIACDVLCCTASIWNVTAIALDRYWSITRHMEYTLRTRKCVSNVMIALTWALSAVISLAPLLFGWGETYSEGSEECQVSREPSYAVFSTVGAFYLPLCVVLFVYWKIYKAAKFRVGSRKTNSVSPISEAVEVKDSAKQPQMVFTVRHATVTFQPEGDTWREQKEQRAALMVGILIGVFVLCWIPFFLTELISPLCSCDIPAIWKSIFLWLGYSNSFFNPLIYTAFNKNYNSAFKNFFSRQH

**Q.** Which AC50 [1] does the source give for CC(C)/N=c1\cc2n(-c3ccc(Cl)cc3)c3ccccc3nc-2cc1Nc1ccc(Cl)cc1 [CLOFAZIMINE] here?
**A.** > 30 µM

**Q.** What about the AC50 [2] of the same compound?
**A.** > 30 µM

**Q.** And the AC50 [3]?
**A.** > 30 µM

**Q.** What about the AC50 [4] of the same compound?
**A.** > 30 µM

**Q.** With CN(C)CCC=C1c2ccccc2CCc2ccccc21 [AMITRIPTYLINE] as the compound, how does the AC50 [5] read?
**A.** > 30 µM

**Q.** For CCOC(=O)Nc1ccc(NCc2ccc(F)cc2)nc1N [FLUPIRTINE], which AC50 [3] is on record?
**A.** > 30 µM

**Q.** What does the source list for NCC1(CC(=O)O)CCCCC1 [GABAPENTIN]?
**A.** AC50 [6]: > 10 µM; AC50 [7]: > 30 µM

**Q.** Which AC50 [8] does the source give for CN(C)CCCC1(c2ccc(F)cc2)OCc2cc(C#N)ccc21 (centres undefined) [CITALOPRAM] here?
**A.** 0.3 µM

**Q.** Which AC50 [9] does the source give for CCOC(=O)[C@H](CCc1ccccc1)N[C@@H](C)C(=O)N1Cc2ccccc2C[C@H]1C(=O)O here?
**A.** > 10 µM

**Q.** What about the AC50 [6] of the same compound?
**A.** > 10 µM

**Q.** With CC(=O)Oc1ccccc1C(=O)O [ASPIRIN] as the compound, how does the AC50 [7] read?
**A.** > 30 µM

**Q.** How did the AC50 [1] turn out when CC(=O)SCC(Cc1ccccc1)C(=O)NCC(=O)OCc1ccccc1 (centres undefined) [RACECADOTRIL] was run?
**A.** > 30 µM

**Q.** And the AC50 [2]?
**A.** 29 µM

**Q.** CCN(CC)CCn1c(=O)c(Cc2ccc(OC)cc2)nc2ccccc21 [CAROVERINE] was tested. Which AC50 [3] did it give?
**A.** > 30 µM

**Q.** What about the AC50 [5] of the same compound?
**A.** 15.9 µM

**Q.** Which AC50 [4] does the source give for Cc1c(C)c2c(c(C)c1O)CCC(C)(COc1ccc(CC3SC(=O)NC3=O)cc1)O2 (centres undefined) [TROGLITAZONE] here?
**A.** 3.4 µM

**Q.** Which AC50 [8] does the source give for Cc1ccc(C(C)C)c(O)c1 [THYMOL] here?
**A.** 9.1 µM

**Q.** Which AC50 [9] does the source give for OCCOCCN1CCN(C(c2ccccc2)c2ccc(Cl)cc2)CC1 (centres undefined) [HYDROXYZINE] here?
**A.** 0.28 µM
